According to PubChem BioAssay AID248 (DTP/NCI, 2004):
Toxic doses and inconclusive results are not listed. Cut-off read from the data, not from the text of the source: active = T/C of 150% or more; inactive = T/C below 125%.

Test system: L1210 leukemia ip in BDF1 mice, survival T/C
Test: NCI In Vivo Anticancer Drug Screen. Data for tumor model L1210 Leukemia (intraperitoneal) in B6D2F1 (BDF1) mice
Settings: endpoint: mean survival time, higher = longer survival
How it was run: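 Value reflects the ratio of survival in compound-treated mice to survival in vehicle-treated controls, with both groups carrying the same transplanted tumor.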

[1] = dose: 50.0 mg/kg/injection, schedule: Q04DX003 (ip), vehicle: Klucel (hydroxypropylcellulose) (HPC)
[2] = dose: 100.0 mg/kg/injection, schedule: Q04DX003 (ip), vehicle: Klucel (hydroxypropylcellulose) (HPC)
[3] = dose: 200.0 mg/kg/injection, schedule: Q04DX003 (ip), vehicle: Klucel (hydroxypropylcellulose) (HPC)

Measured: T/C

CS(=O)(=O)OC1C(OCc2ccccc2)OC(COCc2ccccc2)C(OC2OC(COCc3ccccc3)C(OCc3ccccc3)C(OCc3ccccc3)C2OCc2ccccc2)C1OCc1ccccc1 (stereo not given)
inactive: [1] 93 % of control | [2] 93 % of control | [3] 97 % of control | dose: 400.0 mg/kg/injection, schedule: Q04DX003 (ip), vehicle: Klucel (hydroxypropylcellulose) (HPC) 93 % of control

CCCCCCCCCCOc1ccc(OC)cc1
inactive: dose: 100.0 mg/kg/injection, schedule: Q04DX002 (ip), vehicle: other 103 % of control | dose: 200.0 mg/kg/injection, schedule: Q04DX002 (ip), vehicle: other 95 % of control | dose: 400.0 mg/kg/injection, schedule: Q04DX002 (ip), vehicle: other 106 % of control

CCCC(=O)C(CC)C(=O)Nc1ccccc1 (stereo not given)
inactive: [1] 100 % of control | dose: 100.0 mg/kg/injection, schedule: Q01DX001 (ip), vehicle: carboxymethylcellulose (CMC) 94 % of control | [2] 93 % of control | dose: 200.0 mg/kg/injection, schedule: Q01DX001 (ip), vehicle: carboxymethylcellulose (CMC) 105 % of control | [3] 102 % of control | dose: 400.0 mg/kg/injection, schedule: Q01DX001 (ip), vehicle: carboxymethylcellulose (CMC) 100 % of control

C(COCCOCC1CO1)OCCOCC1CO1 (stereo not given)
inactive: dose: 62.0 mg/kg/injection, schedule: Q01DX Z (ip), vehicle: saline 110 % of control | dose: 125.0 mg/kg/injection, schedule: Q01DX Z (ip), vehicle: saline 117 % of control | dose: 250.0 mg/kg/injection, schedule: Q01DX Z (ip), vehicle: saline 116 % of control | dose: 500.0 mg/kg/injection, schedule: Q01DX Z (ip), vehicle: saline 108 % of control

COc1cc(C(C)=O)ccc1O
inactive: dose: 100.0 mg/kg/injection, schedule: Q04DX002 (ip), vehicle: Klucel (hydroxypropylcellulose) (HPC) 99 % of control | dose: 200.0 mg/kg/injection, schedule: Q04DX002 (ip), vehicle: Klucel (hydroxypropylcellulose) (HPC) 89 % of control | dose: 400.0 mg/kg/injection, schedule: Q04DX002 (ip), vehicle: Klucel (hydroxypropylcellulose) (HPC) 89 % of control

CCCCCCCCOC(=O)CCCc1ccc(N(CCCl)CCCl)cc1
inactive: dose: 100.0 mg/kg/injection, schedule: Q04DX002 (ip), vehicle: saline 104 % of control | dose: 200.0 mg/kg/injection, schedule: Q04DX002 (ip), vehicle: saline 108 % of control | dose: 400.0 mg/kg/injection, schedule: Q04DX002 (ip), vehicle: saline 111 % of control

COc1cc2c(cc1OC)C1CC(=O)CCN1CC2 (stereo not given)
inactive: dose: 200.0 mg/kg/injection, schedule: Q01DX009 (ip), vehicle: Klucel (hydroxypropylcellulose) (HPC) 101 % of control

C=C(Br)COCC
inactive: dose: 25.0 mg/kg/injection, schedule: Q01DX009 (ip), vehicle: acetone 97 % of control
